Experimental data taken from ChEMBL document CHEMBL4321854, “Discovery of a First-in-Class Mitogen-Activated Protein Kinase Kinase 1/2 Degrader” (J Med Chem, 2019).
Calls of active or inactive are those of the source. The rule behind the calls is not given here.

Legend:
[1] = biological target: von Hippel-Lindau disease tumor suppressor/Dual specificity mitogen-activated protein kinase kinase 1 (Homo sapiens, UniProt Q02750+P40337, V600E); test: (§1) Protac activity against VHL/MEK1 in human SK-MEL-28 cells harboring BRAF V600E variant assessed as degradation of MEK1 after 24 hrs by Western blot analysis; assay type: cell-based
[2] = biological target: T1, von Hippel-Lindau disease tumor suppressor/Dual specificity mitogen-activated protein kinase kinase 1 (Homo sapiens) (UniProt Q02750+P40337); test: as §1; assay type: cell-based
[3] = Ratio of Plasma concentration in Swiss albino mouse at 50 mg/kg, ip measured after 8 hrs to GI50 for antiproliferative activity against human HT-29 cells; assay type: organism-based; conditions: in vivo
[4] = biological target: T1, von Hippel-Lindau disease tumor suppressor/Dual specificity mitogen-activated protein kinase kinase 1 (Homo sapiens); test: Protac activity against VHL/MEK1 in human SK-MEL-28 cells harboring with BRAF V600E variant assessed as degradation of MEK1 at 0.1 to 0.3 uM by Western blot analysis; assay type: cell-based; conditions: TDE = time-dependent effect
[5] = biological target: Dual specificity mitogen-activated protein kinase kinase 1 (Homo sapiens, UniProt Q02750); test: Inhibition of recombinant full length human His-tagged MEK1 expressed in baculovirus expression system using ERK K52R dead variant as substrate preincubated for 20 mins followed by incubation with 33P-ATP addition for 2 hrs by hotspot kinase assay
HT-29 = test: Inhibition of colony formation in human HT-29 cells at 10 to 100 nM supplemented with fresh medium containing compound every 3 days for 14 days by crystal violet staining based assay; assay type: functional, cell-based
[6] = biological target: T2, von Hippel-Lindau disease tumor suppressor/Dual specificity mitogen-activated protein kinase kinase 2 (Homo sapiens) (UniProt P36507+P40337); test: Protac activity against VHL/MEK2 in human HT-29 cells harboring with BRAF V600E variant assessed as degradation of MEK2 at 0.3 uM after 3 to 144 hrs by Western blot analysis; assay type: cell-based
[7] = biological target: T1, von Hippel-Lindau disease tumor suppressor/Dual specificity mitogen-activated protein kinase kinase 1 (Homo sapiens); test: Protac activity against VHL/MEK1 in human SK-MEL-28 cells harboring with BRAF V600E variant assessed as degradation of MEK1 by measuring reduction in MEK1 protein level at 0.3 uM after 4 hrs by Western blot analysis relative to control; assay type: cell-based; parameters: scale not given: the % may be the effect or the level left
[8] = biological target: T1, von Hippel-Lindau disease tumor suppressor/Dual specificity mitogen-activated protein kinase kinase 1 (Homo sapiens); test: Protac activity against VHL/MEK1 in human HT-29 cells harboring with BRAF V600E variant assessed as degradation of MEK1 by measuring MEK1 protein level at 0.3 uM pretreated with VHL ligand, VH 032 for 2 hrs followed by incubation with compound for 10 hrs by Western blot analysis; assay type: cell-based
[9] = biological target: T1, von Hippel-Lindau disease tumor suppressor/Dual specificity mitogen-activated protein kinase kinase 1 (Homo sapiens); test: Protac activity against VHL/MEK1 in human HT-29 cells harboring with BRAF V600E variant assessed as degradation of MEK1 by measuring reduction in MEK1 protein level at 0.5 uM after 24 hrs by Western blot analysis relative to control; assay type: cell-based; parameters: scale not given: the % may be the effect or the level left
[10] = biological target: T1, von Hippel-Lindau disease tumor suppressor/Dual specificity mitogen-activated protein kinase kinase 1 (Homo sapiens); test: Protac activity against VHL/MEK1 in human HT-29 cells harboring with BRAF V600E variant assessed as degradation of MEK1 at 0.3 uM after 3 to 144 hrs by Western blot analysis; assay type: cell-based
[11] = biological target: T2, von Hippel-Lindau disease tumor suppressor/Dual specificity mitogen-activated protein kinase kinase 2 (Homo sapiens); test: Protac activity against VHL/MEK2 in human UACC257 cells harboring with BRAF V600E variant assessed as degradation of MEK2 at 3 to 5 uM after 24 hrs by Western blot analysis; assay type: cell-based
[12] = biological target: T1, von Hippel-Lindau disease tumor suppressor/Dual specificity mitogen-activated protein kinase kinase 1 (Homo sapiens); test: Protac activity against VHL/MEK1 in human HT-29 cells harboring with BRAF V600E variant assessed as degradation of MEK1 at 0.1 to 0.3 uM by Western blot analysis; assay type: cell-based; conditions: TDE = time-dependent effect
[13] = biological target: T1, von Hippel-Lindau disease tumor suppressor/Dual specificity mitogen-activated protein kinase kinase 1 (Homo sapiens); test: Protac activity against VHL/MEK1 in human HT-29 cells harboring with BRAF V600E variant assessed as degradation of MEK1 at 0.1 to 0.3 uM after 4 hrs by Western blot analysis; assay type: cell-based
UACC-257 = test: Effect on total ERK protein expression in human UACC257 cells at 0.001 to 5 uM after 24 hrs by Western blot analysis; assay type: functional, cell-based
[14] = biological target: T2, von Hippel-Lindau disease tumor suppressor/Dual specificity mitogen-activated protein kinase kinase 2 (Homo sapiens); test: Protac activity against VHL/MEK2 in human HT-29 cells harboring with BRAF V600E variant assessed as degradation of MEK2 by measuring MEK2 protein level at 0.3 uM pretreated with NEDD8-activating enzyme inhibitor, MLN4924 for 2 hrs followed by incubation with compound for 10 hrs by Western blot analysis; assay type: cell-based
[15] = biological target: T1, von Hippel-Lindau disease tumor suppressor/Dual specificity mitogen-activated protein kinase kinase 1 (Homo sapiens); test: Protac activity against VHL/MEK1 in human SK-MEL-28 cells harboring with BRAF V600E variant assessed as degradation of MEK1 by measuring MEK1 protein level at 0.3 uM pretreated with proteasome inhibitor, MG-132 for 2 hrs followed by incubation with compound for 10 hrs by Western blot analysis; assay type: cell-based
[16] = biological target: T3, von Hippel-Lindau disease tumor suppressor/Dual specificity mitogen-activated protein kinase kinase 2 (Homo sapiens, UniProt P36507+P40337, V600E); test: (§2) Protac activity against VHL/MEK2 in human COLO205 cells harboring BRAF V600E variant assessed as degradation of MEK2 after 24 hrs by Western blot analysis; assay type: cell-based
[17] = biological target: T2, von Hippel-Lindau disease tumor suppressor/Dual specificity mitogen-activated protein kinase kinase 2 (Homo sapiens); test: as §2; assay type: cell-based
[18] = biological target: T1, von Hippel-Lindau disease tumor suppressor/Dual specificity mitogen-activated protein kinase kinase 1 (Homo sapiens); test: Protac activity against VHL/MEK1 in human HT-29 cells harboring with BRAF V600E variant assessed as degradation of MEK1 at 3 to 5 uM after 24 hrs by Western blot analysis; assay type: cell-based
[19] = biological target: T2, von Hippel-Lindau disease tumor suppressor/Dual specificity mitogen-activated protein kinase kinase 2 (Homo sapiens); test: Protac activity against VHL/MEK2 in human HT-29 cells harboring with BRAF V600E variant assessed as degradation of MEK2 at 0.1 to 0.3 uM after 4 hrs by Western blot analysis; assay type: cell-based
SK-MEL-28 = test: Effect on total ERK protein expression in human SK-MEL-28 cells at 0.001 to 5 uM after 24 hrs by Western blot analysis; assay type: functional, cell-based
[20] = biological target: T4, von Hippel-Lindau disease tumor suppressor/Dual specificity mitogen-activated protein kinase kinase 2/Dual specificity mitogen-activated protein kinase kinase 1 (Homo sapiens) (UniProt P36507+Q02750+P40337); test: Protac activity against VHL/MEK1/2 in human COLO205 cells harboring with BRAF V600E variant assessed as reduction in phosphorylation of ERK at T202/Y204 residues after 24 hrs by Western blot analysis; assay type: cell-based
[21] = Maximum drug concentration in Swiss albino mouse plasma at 50 mg/kg, ip measured after 0.5 hrs by LC-MS/MS analysis; assay type: ADME, organism-based; parameters: dose 50 mg/kg, route intraperitoneal
[22] = biological target: T2, von Hippel-Lindau disease tumor suppressor/Dual specificity mitogen-activated protein kinase kinase 2 (Homo sapiens); test: Protac activity against VHL/MEK2 in human HT-29 cells harboring with BRAF V600E variant assessed as degradation of MEK2 at 0.1 to 0.3 uM by Western blot analysis; assay type: cell-based; conditions: TDE = time-dependent effect
[23] = biological target: T3, von Hippel-Lindau disease tumor suppressor/Dual specificity mitogen-activated protein kinase kinase 2; test: (§3) Protac activity against VHL/MEK2 in human UACC257 cells harboring BRAF V600E variant assessed as degradation of MEK2 after 24 hrs by Western blot analysis; assay type: cell-based
[24] = biological target: T2, von Hippel-Lindau disease tumor suppressor/Dual specificity mitogen-activated protein kinase kinase 2 (Homo sapiens); test: as §3; assay type: cell-based
[25] = biological target: T4, von Hippel-Lindau disease tumor suppressor/Dual specificity mitogen-activated protein kinase kinase 2/Dual specificity mitogen-activated protein kinase kinase 1 (Homo sapiens); test: Protac activity against VHL/MEK1/2 in human SK-MEL-28 cells harboring with BRAF V600E variant assessed as reduction in phosphorylation of ERK at T202/Y204 residues after 24 hrs by Western blot analysis; assay type: cell-based
[26] = biological target: T4, von Hippel-Lindau disease tumor suppressor/Dual specificity mitogen-activated protein kinase kinase 2/Dual specificity mitogen-activated protein kinase kinase 1 (Homo sapiens); test: Protac activity against VHL/MEK1/2 in human SK-MEL-28 cells harboring with BRAF V600E variant assessed as phosphorylation of ERK at T202/Y204 residues at 0.3 uM pretreated with MEK1/2 inhibitor, PD0325901 for 2 hrs followed by incubation with compound for 10 hrs by Western blot analysis; assay type: cell-based

T1 sequence (P40337 whole entry, looked up): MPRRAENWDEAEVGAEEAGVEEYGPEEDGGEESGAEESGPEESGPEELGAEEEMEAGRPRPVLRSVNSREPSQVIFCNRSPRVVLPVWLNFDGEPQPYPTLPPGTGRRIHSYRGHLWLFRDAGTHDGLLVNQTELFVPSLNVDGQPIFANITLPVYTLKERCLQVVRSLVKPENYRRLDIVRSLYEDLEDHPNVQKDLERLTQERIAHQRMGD
T1 sequence (Q02750 whole entry, looked up): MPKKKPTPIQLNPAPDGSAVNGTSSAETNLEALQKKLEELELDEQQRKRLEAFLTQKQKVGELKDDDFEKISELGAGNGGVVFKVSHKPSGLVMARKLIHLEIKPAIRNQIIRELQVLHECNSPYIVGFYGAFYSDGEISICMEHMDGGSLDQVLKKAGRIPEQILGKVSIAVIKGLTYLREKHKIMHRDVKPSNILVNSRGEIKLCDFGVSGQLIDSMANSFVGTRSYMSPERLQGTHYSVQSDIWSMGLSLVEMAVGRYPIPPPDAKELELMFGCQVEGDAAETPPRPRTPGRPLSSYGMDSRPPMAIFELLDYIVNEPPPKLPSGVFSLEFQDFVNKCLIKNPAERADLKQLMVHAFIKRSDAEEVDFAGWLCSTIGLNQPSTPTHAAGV
T2 sequence (P36507 whole entry, looked up): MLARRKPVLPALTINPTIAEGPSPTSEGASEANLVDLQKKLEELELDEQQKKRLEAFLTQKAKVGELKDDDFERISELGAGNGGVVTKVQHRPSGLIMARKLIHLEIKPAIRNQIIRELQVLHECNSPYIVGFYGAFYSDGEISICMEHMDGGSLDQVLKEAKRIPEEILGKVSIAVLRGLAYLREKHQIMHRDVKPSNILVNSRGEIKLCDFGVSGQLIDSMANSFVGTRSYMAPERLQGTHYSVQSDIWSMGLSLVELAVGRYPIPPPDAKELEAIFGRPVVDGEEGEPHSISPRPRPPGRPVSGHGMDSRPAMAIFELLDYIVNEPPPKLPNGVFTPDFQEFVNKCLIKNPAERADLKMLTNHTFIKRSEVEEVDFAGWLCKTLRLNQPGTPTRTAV
T2 sequence (P40337 whole entry, looked up): as the sequence (P40337 whole entry, looked up) above
T4 sequence (P36507 whole entry, looked up): as the sequence (P36507 whole entry, looked up) above
T4 sequence (P40337 whole entry, looked up): as the sequence (P40337 whole entry, looked up) above
T4 sequence (Q02750 whole entry, looked up): as the sequence (Q02750 whole entry, looked up) above
T3 sequence (P36507 whole entry, looked up, stated change not applied): as the sequence (P36507 whole entry, looked up) above
T3 sequence (P40337 whole entry, looked up, stated change not applied): as the sequence (P40337 whole entry, looked up) above
Chain of Dual specificity mitogen-activated protein kinase kinase 1 (Q02750 whole entry): as the sequence (Q02750 whole entry, looked up) above
Chain of von Hippel-Lindau disease tumor suppressor/Dual specificity mitogen-activated protein kinase kinase 1 (P40337 whole entry, looked up, stated change not applied): as the sequence (P40337 whole entry, looked up) above
Chain of von Hippel-Lindau disease tumor suppressor/Dual specificity mitogen-activated protein kinase kinase 1 (Q02750 whole entry, looked up, stated change not applied): as the sequence (Q02750 whole entry, looked up) above

Cc1ncsc1-c1ccc([C@H](C)NC(=O)[C@@H]2C[C@@H](O)CN2C(=O)[C@@H](NC(=O)CCCCCCCCCCNCCCONC(=O)c2ccc(F)c(F)c2Nc2ccc(I)cc2F)C(C)(C)C)cc1
DC50 [1]: 31 nM
Activity [2]: Dose-dependent effect
Ratio [3]: 3 to 20
Activity [4]: Tde
IC50 [5]: 1500 nM
inhibition (HT-29): Active
Activity [6]: Active
Activity [7]: > 50%
Activity [8]: inactive
Activity [9]: > 80%
Activity [10]: Active
Activity [11]: Active
Activity [12]: Tde
Activity [13]: Active
Activity (UACC-257): inactive
Activity [14]: inactive
Activity [15]: inactive
DC50 [16]: 11 nM
Activity [17]: Dose-dependent effect
Activity [18]: Active
Activity [19]: Active
Activity (SK-MEL-28): inactive
Activity [20]: Dose-dependent effect
Cmax [21]: 1400 nM
Activity [22]: Tde
DC50 [23]: 27 nM
Activity [24]: Dose-dependent effect
Activity [25]: Dose-dependent effect
Activity [26]: inactive
